Patent US20100331812A1, “Pharmaceutical Formulations for Iontophoretic Delivery of an Immunomodulator” (Nitric BioTherapeutics, Inc., priority 2009, published 2010)

Tests used:
[1] = In vivo skin depot quantification, 0.3% w/w imiquimod formulation
Description: The effect of iontophoresis on its ability to enhance delivery of 0.3% w/w imiquimod (pH 4.0) formulation in vivo into the stratum corneum and the underlying skin (lower epidermis and dermis) was examined.
Hairless rats were anesthetized using Ketamine and Xylazine. An area on the abdomen was marked and cleaned. Drug formulation was loaded onto an iontophoretic drug cartridge and was secured on the area with tape. For iontophoretic delivery, the cartridge was connected to a current source and a TransQ iontophoretic patch (Iomed) served as the counter electrode. A current density of 0.2 mA/cm^2 was applied for 15 min. At the end of 15 min, the drug loaded cartridges were removed and excess drug on the site was removed. Tape stripping (3M Transpore™ tape) was performed to quantify the drug levels in the stratum corneum. Transepidermal water loss (TEWL) measurements were also taken to ensure the complete removal of the stratum corneum. The rats were then euthanized and the skin samples were excised for further analysis. A skin extraction assay was performed to quantify the drug levels in the underlying skin immediately after 15 min iontophoresis or passive.

[2] = Skin irritation or redness observed in the in vivo studies; set-up: species or system hairless rat; details: any of the in vivo studies
Experimental: (§1) A topical delivery system containing 2% w/w drug formulation (consisting of 20% PEG 400, 10% propylene glycol, 20% Transcutol P, 3% Tween 80 and 10% glycerin; in w/w, final pH 3.6) was employed. The formulation was loaded into a cartridge and iontophoresis (0.2 mA/cm^2, 15 min) was used to deliver the drug into the skin using the hairless rat model as described herein. A passive delivery control was run for comparison. […] Transepidermal water loss (TEWL) measurements were taken to ensure the removal of the stratum corneum.

[3] = Solubility of imiquimod in excipient formulation, by HPLC; type: physicochemical; details: about 3 mg/mL imiquimod in about 30% w/w PEG 400, 10% w/w glycerin, 3% w/w polysorbate 80 at pH 4
Experimental: (§2) The effect of iontophoresis on the permeation profile of imiquimod across hairless rat skin in vitro was examined. The solubility of imiquimod was tested in various solvent matrices and a formulation with acceptable solubility was employed for further in vitro and in vivo studies as described herein. The following methods were performed.
Using the above methods, various excipients were tested to prepare a formulation with sufficient solubility for imiquimod.

[4] = In vitro permeation across hairless rat skin, Franz diffusion cells, with tape stripping and skin extraction; type: in vitro ADME; details: for cumulative amount of drug permeated at 24 hr, passive: passive diffusion
Experimental: as §2
For the in vitro studies, Franz diffusion cells were employed. Hairless rats were euthanized by carbon dioxide asphyxiation and the abdominal skin area was excised and carefully cleaned to remove excess fat. The skin was then mounted onto Franz diffusion cells. Citrate buffer with 20% ethanol was employed as the receptor buffer and the drug formulation was placed in the donor chamber. For iontophoretic delivery, a silver/silver chloride electrode system was used. […] Samples were taken at predetermined time points and the receptor chamber was replenished with fresh receptor buffer accordingly. At completion, the skin samples were dismounted and washed with the receptor buffer to remove excess drug. Tape stripping and skin extraction studies were performed to quantify the amount of the drug in the skin. All the samples were analyzed via HPLC (C18 column; mobile phase: acetonitrile/50 mM ammonium acetate (70:30); injection volume: 10 μl UV detection at 250 nm).

[5] = In vivo skin depot formation and desorption, 2% w/w imiquimod formulation with Transcutol P; set-up: species or system hairless rat
Experimental: In this example the formation and pharmacokinetics of an imiquimod skin depot following iontophoretic delivery in an in vivo hairless rat model were examined.
as §1

[6] = cited from earlier work
[7] = 0.3% w/w, 0.2 mA/cm^2 for 15 min
[8] = 0.3% w/w, pH 4.0, after about 15 min of treatment
[9] = in vivo, 2% w/w, 72 hrs after application

drug in the stratum corneum, iontophoresis [1, 7]: 11.91 µg
drug in the underlying tissue, iontophoresis [1, 7]: 0.591 µg
drug detection in the stratum corneum at 72 hr, iontophoresis ([1]; 0.3% w/w, 72 hr from treatment): still detected
drug detection in the stratum corneum at 72 hr, passive ([1]; 0.3% w/w, 72 hr from treatment): no drug was detected
drug detection in the underlying skin at 72 hr, iontophoresis ([1]; 0.3% w/w, 72 hr from treatment): still detected
drug in the underlying tissue at 72 hr, passive ([1]; 0.3% w/w, 72 hr from treatment): small amount of drug was also present
drug level in the stratum corneum, iontophoresis vs passive ([1]; 0.3% w/w, after 15 min of treatment): 10 fold
drug in the stratum corneum, passive [1, 8]: 1.07 µg
drug in the underlying skin, passive [1, 8]: 0.40 µg
residence time of the depot in the stratum corneum after iontophoresis ([1]; iontophoresis): more than 72 hr
solubility level [3]: about 0.3%
cumulative amount of drug permeated at 24 hours, iontophoresis ([4]; 0.3% w/w formulation, 0.2 mA/cm^2 for 15 min, then passive diffusion to 24 hr): 22.41 μg/cm^2
permeation following iontophoresis ([4]; 0.3% w/w formulation, iontophoresis for 15 min, end of 24 hr): approximately 22 pg/cm
cumulative amount of drug permeated at 24 hr, passive ([4]; 0.3% w/w formulation): 2.24 μg/cm^2
cumulative amount of drug permeated at 24 hr, passive ([4]; 0.3% w/w formulation, listed as imiquimod): approximately 2 μg/cm^2
amount of drug in the underlying skin, iontophoretic ([4]; in vitro, 0.2 mA/cm^2 15 min, end of 24 hr study, skin extraction): 6.31 µg
amount of drug in the stratum corneum, iontophoretic ([4]; in vitro, 0.2 mA/cm^2 15 min, end of 24 hr study, tape stripping): 7.53 µg
amount of drug in the underlying skin, passive ([4]; in vitro, end of 24 hr study, skin extraction): 6.27 µg
amount of drug in the stratum corneum, passive ([4]; in vitro, end of 24 hr study, tape stripping): 1.31 µg
imiquimod delivered to the skin ([5]; 15 min iontophoresis at 0.2 mA/cm^2): approximately 14 ug
total skin drug level, iontophoretic delivery, after 15 min ([5]; in vivo, 2% w/w, pH 3.6, 0.2 mA/cm^2, 15 min): 14.19 ± 2.07 µg
total skin drug level, passive delivery, after 15 min ([5]; in vivo, 2% w/w, pH 3.6, passive, 15 min): 3.26 ± 0.63 µg
drug detection in the stratum corneum at 72 hrs, iontophoretic ([5]; in vivo, 2% w/w, 72 hrs): still detected
drug detection in the underlying skin at 72 hrs, iontophoretic ([5]; in vivo, 2% w/w, 72 hrs): No drug was detected
drug detection in the underlying skin at 72 hrs, passive ([5]; in vivo, 2% w/w, 72 hrs): No drug was detected
total skin drug level, iontophoretic delivery, at 72 hrs [5, 9]: 5.50 ± 2.76 µg
total skin drug level, passive delivery, at 72 hrs [5, 9]: 1.96 ± 0.37 µg
Compound: CC(C)Cn1cnc2c(N)nc3ccccc3c21 [Imiquimod]
irritation or redness of the skin [2]: not observed
log P [6]: 2.7
pKa [6]: 7.3
